Source: US20130184272A1, “DIABETES THERAPEUTIC AGENT” (TAKEDA PHARMACEUTICAL COMPANY LIMITED, priority 2010, published 2013)

Tests used:
Female KKA^y mice = experiment: Anti-diabetes action and dyslipidemia improving effect in KKA^y mouse; type: in vivo; details: mixed feed dose 0.0001 %, 2 weeks; control group = 100
Method: Female KKA^y mice (12-week-old, CLEA Japan, Inc.) were bred while allowing free ingestion of both feed and water. The mice were bred for acclimation with powder CE-2 (CLEA Japan, Inc.) from 2 weeks before administration of the compound. The body weight and plasma markers were measured and, at 14 weeks of age, they were divided such that the measured values were uniform with those of the control group. The compound of Reference Example 1, 2, 7, 8, 9 or 22 was administered for 2 weeks in a mixed feed (0.01-0.0001%). On the last day, plasma levels of glucose, insulin, total cholesterol and neutral lipid were measured.

C/EBPα = experiment: Adipocyte-related gene expression level: C/EBPα; type: cell-based
Method: In the same manner as in Example 10, the cells were cultured, and total RNA was extracted using Rneasy96 kit (Qiagen) from the cell immediately before and 6 days after addition of […] of the compound of Reference Example 1. cDNA was prepared from the total RNA using TaqMan reverse transcription reagent (Applied Biosystems), quantitative PCR was performed by ABI PRISM7000 or 7000 using TaqMan Universal PCR master mix (Applied Biosystems) and commercially available primers, and the expression level of each gene was determined. The commercially available primers used were as follows. • C/EBPα (Mm00514283_s1, TaqMan Gene Expression Assays, Applied Biosystems) • C/EBPβ (Mm00843434_s1, TaqMan Gene Expression Assays, Applied Biosystems) • KLF15 (Mm00517792_m1, TaqMan Gene Expression Assays, Applied Biosystems) • PPARγ (Mm00440945_m1, TaqMan Gene Expression Assays, Applied Biosystems)
The expression level was amended by the amount of 36B4 (Takeda Pharmaceutical Company Limited) in the same manner as in Example 3, and the relative values to the value immediately before addition of each gene compound as 1 are shown in Table 16. The data in Table 16 show mean±standard deviation at n=3-4 (n is the number of samples).

[1] = test system: Male C57BL/6J mice on a high-fat diet; experiment: Antiobesity, dyslipidemia and diabetes improving effect in mouse fed with high-fat diet; type: in vivo; set-up: plasma leptin (mg/dL): unit not given here; details: for epididymal fat mass / gastrocnemius muscle weight (g/100 g body weight) / hepatocyte weight / mesenteric fat mass: Day 38
Method: Male C57BL/6J mice (CLEA Japan, Inc.) were bred from 5-week-old on a high-fat diet (D12451, research diet) while allowing free ingestion of both feed and water to prepare obesity mice. The mice were bred for acclimation for 2 weeks from 21-week-old. The body weight and plasma markers were measured when 23-week-old, the mice were divided into 6 groups (6 per group) such that the values thereof were uniform, and Reference Example 1 (0.01-0.1 mg/kg) or Reference Example 7 (1-3 mg/kg) was orally administered for 5 weeks. After 14 and 28 days, plasma levels of total cholesterol, neutral lipid, glucose, insulin, leptin, adiponectin and glycated hemoglobin were measured. On the last day, the mice were autopsied, and weights of mesenteric fat, epididymal fat, liver and gastrocnemius muscle were measured. The data of Table 18 show mean±standard deviation at n=5-6 (n is the number of samples).

Cc1ncccc1Oc1sc(C(N)=O)c2c1-c1c(cnn1C)CC2 [Ref. Ex. 1, 1-methyl-8-[(2-methylpyridin-3-yl)oxy]-4,5-dihydro-1H-thieno[3,4-g]indazole-6-carboxamide]
plasma glucose (%) (Female KKA^y mice): 53.2 ± 19.1%
plasma insulin (%) (Female KKA^y mice): 27.3 ± 19.5%
plasma neutral lipid (%) (Female KKA^y mice): 38.9 ± 11.0%
plasma total cholesterol (%) (Female KKA^y mice): 61.6 ± 10.8%
C/EBPα expression level (amended by 36B4) (C/EBPα; 10 μm [sic] of compound, 6 days after addition, value immediately before addition = 1): 1.6 ± 0.5
expression level of C/EBPα (in words) (C/EBPα; C3H10T1/2 cell): decreased
average amount of ingestion ([1]; 0.01 mg/kg oral): 3.7 ± 0.2 g/day
body weight (g) change ([1]; 0.01 mg/kg oral): 3.0 ± 1.2 g
body weight ([1]; 0.01 mg/kg oral, Day 0): 40.9 ± 2.5 g
glycated hemoglobin (%) ([1]; 0.01 mg/kg oral, Day 0): 4.5 ± 0.2%
plasma adiponectin (μg/dL)) ([1]; 0.01 mg/kg oral, Day 0): 15.9 ± 3.4 µg/dL
plasma glucose ([1]; 0.01 mg/kg oral, Day 0): 178.1 ± 26.5 mg/dL
plasma insulin ([1]; 0.01 mg/kg oral, Day 0): 4.2 ± 2.0 ng/mL
plasma leptin (mg/dL) ([1]; 0.01 mg/kg oral, Day 0): 54.2 ± 21.0
plasma neutral fats ([1]; 0.01 mg/kg oral, Day 0): 73.4 ± 15.1 mg/dL
plasma total cholesterol ([1]; 0.01 mg/kg oral, Day 0): 222.1 ± 45.4 mg/dL
glycated hemoglobin (%) ([1]; 0.01 mg/kg oral, Day 14): 4.0 ± 0.3 %
plasma adiponectin (μg/dL)) ([1]; 0.01 mg/kg oral, Day 14): 15.5 ± 2.5 µg/dL
plasma glucose ([1]; 0.01 mg/kg oral, Day 14): 156.0 ± 23.4 mg/dL
plasma insulin ([1]; 0.01 mg/kg oral, Day 14): 6.2 ± 5.8 ng/mL
plasma leptin (mg/dL) ([1]; 0.01 mg/kg oral, Day 14): 71.2 ± 22.0
plasma neutral fats ([1]; 0.01 mg/kg oral, Day 14): 59.4 ± 18.5 mg/dL
plasma total cholesterol ([1]; 0.01 mg/kg oral, Day 14): 182.6 ± 19.5 mg/dL
glycated hemoglobin (%) ([1]; 0.01 mg/kg oral, Day 28): 3.8 ± 0.4%
plasma adiponectin (μg/dL)) ([1]; 0.01 mg/kg oral, Day 28): 14.7 ± 2.9 µg/dL
plasma glucose ([1]; 0.01 mg/kg oral, Day 28): 162.9 ± 24.4 mg/dL
plasma insulin ([1]; 0.01 mg/kg oral, Day 28): 5.4 ± 3.9 ng/mL
plasma leptin (mg/dL) ([1]; 0.01 mg/kg oral, Day 28): 81.8 ± 23.9
plasma neutral fats ([1]; 0.01 mg/kg oral, Day 28): 45.5 ± 14.1 mg/dL
plasma total cholesterol ([1]; 0.01 mg/kg oral, Day 28): 187.2 ± 15.9 mg/dL
body weight ([1]; 0.01 mg/kg oral, Day 37): 44.9 ± 2.6 g
epididymal fat mass ([1]; 0.01 mg/kg oral): 0.91 ± 0.26 g
gastrocnemius muscle weight (g/100 g body weight) ([1]; 0.01 mg/kg oral): 0.373 ± 0.030 g/100 g body weight
hepatocyte weight ([1]; 0.01 mg/kg oral): 1.81 ± 0.23 g
mesenteric fat mass ([1]; 0.01 mg/kg oral): 0.87 ± 0.17 g
average amount of ingestion ([1]; 0.03 mg/kg oral): 3.2 ± 0.2 g/day
body weight (g) change ([1]; 0.03 mg/kg oral): -0.2 ± 0.9 g
body weight ([1]; 0.03 mg/kg oral, Day 0): 40.9 ± 2.2 g
glycated hemoglobin (%) ([1]; 0.03 mg/kg oral, Day 0): 4.5 ± 0.1%
plasma adiponectin (μg/dL)) ([1]; 0.03 mg/kg oral, Day 0): 18.0 ± 4.0 µg/dL
plasma glucose ([1]; 0.03 mg/kg oral, Day 0): 178.5 ± 27.8 mg/dL
plasma insulin ([1]; 0.03 mg/kg oral, Day 0): 6.0 ± 3.7 ng/mL
plasma leptin (mg/dL) ([1]; 0.03 mg/kg oral, Day 0): 70.3 ± 19.6
plasma neutral fats ([1]; 0.03 mg/kg oral, Day 0): 72.3 ± 34.0 mg/dL
plasma total cholesterol ([1]; 0.03 mg/kg oral, Day 0): 238.2 ± 19.0 mg/dL
glycated hemoglobin (%) ([1]; 0.03 mg/kg oral, Day 14): 4.1 ± 0.1 %
plasma adiponectin (μg/dL)) ([1]; 0.03 mg/kg oral, Day 14): 19.5 ± 3.1 µg/dL
plasma glucose ([1]; 0.03 mg/kg oral, Day 14): 154.9 ± 12.1 mg/dL
plasma insulin ([1]; 0.03 mg/kg oral, Day 14): 3.5 ± 2.1 ng/mL
plasma leptin (mg/dL) ([1]; 0.03 mg/kg oral, Day 14): 54.7 ± 19.0
plasma neutral fats ([1]; 0.03 mg/kg oral, Day 14): 50.9 ± 14.7 mg/dL
plasma total cholesterol ([1]; 0.03 mg/kg oral, Day 14): 165.6 ± 11.3 mg/dL
glycated hemoglobin (%) ([1]; 0.03 mg/kg oral, Day 28): 4.1 ± 0.1%
plasma adiponectin (μg/dL)) ([1]; 0.03 mg/kg oral, Day 28): 16.4 ± 3.8 µg/dL
plasma glucose ([1]; 0.03 mg/kg oral, Day 28): 167.0 ± 20.4 mg/dL
plasma insulin ([1]; 0.03 mg/kg oral, Day 28): 2.7 ± 0.8 ng/mL
plasma leptin (mg/dL) ([1]; 0.03 mg/kg oral, Day 28): 62.4 ± 18.1
plasma neutral fats ([1]; 0.03 mg/kg oral, Day 28): 54.4 ± 19.8 mg/dL
plasma total cholesterol ([1]; 0.03 mg/kg oral, Day 28): 170.3 ± 13.5 mg/dL
body weight ([1]; 0.03 mg/kg oral, Day 37): 41.0 ± 2.3 g
epididymal fat mass ([1]; 0.03 mg/kg oral): 0.72 ± 0.05 g
gastrocnemius muscle weight (g/100 g body weight) ([1]; 0.03 mg/kg oral): 0.407 ± 0.017 g/100 g body weight
hepatocyte weight ([1]; 0.03 mg/kg oral): 1.56 ± 0.11 g
mesenteric fat mass ([1]; 0.03 mg/kg oral): 0.57 ± 0.11 g
average amount of ingestion ([1]; 0.1 mg/kg oral): 2.7 ± 0.3 g/day
body weight (g) change ([1]; 0.1 mg/kg oral): -4.1 ± 0.7 g
body weight ([1]; 0.1 mg/kg oral, Day 0): 38.8 ± 3.5 g
glycated hemoglobin (%) ([1]; 0.1 mg/kg oral, Day 0): 4.5 ± 0.2%
plasma adiponectin (μg/dL)) ([1]; 0.1 mg/kg oral, Day 0): 16.8 ± 5.7 µg/dL
plasma glucose ([1]; 0.1 mg/kg oral, Day 0): 183.9 ± 35.2 mg/dL
plasma insulin ([1]; 0.1 mg/kg oral, Day 0): 4.3 ± 1.8 ng/mL
plasma leptin (mg/dL) ([1]; 0.1 mg/kg oral, Day 0): 55.7 ± 15.4
plasma neutral fats ([1]; 0.1 mg/kg oral, Day 0): 63.2 ± 9.1 mg/dL
plasma total cholesterol ([1]; 0.1 mg/kg oral, Day 0): 218.2 ± 19.0 mg/dL
glycated hemoglobin (%) ([1]; 0.1 mg/kg oral, Day 14): 4.0 ± 0.2 %
plasma adiponectin (μg/dL)) ([1]; 0.1 mg/kg oral, Day 14): 22.8 ± 3.8 µg/dL
plasma glucose ([1]; 0.1 mg/kg oral, Day 14): 159.6 ± 26.7 mg/dL
plasma insulin ([1]; 0.1 mg/kg oral, Day 14): 1.4 ± 0.6 ng/mL
plasma leptin (mg/dL) ([1]; 0.1 mg/kg oral, Day 14): 27.4 ± 19.1
plasma neutral fats ([1]; 0.1 mg/kg oral, Day 14): 25.2 ± 7.6 mg/dL
plasma total cholesterol ([1]; 0.1 mg/kg oral, Day 14): 129.1 ± 15.4 mg/dL
glycated hemoglobin (%) ([1]; 0.1 mg/kg oral, Day 28): 3.8 ± 0.2 %
plasma adiponectin (μg/dL)) ([1]; 0.1 mg/kg oral, Day 28): 19.2 ± 2.9 µg/dL
plasma glucose ([1]; 0.1 mg/kg oral, Day 28): 138.6 ± 17.3 mg/dL
plasma insulin ([1]; 0.1 mg/kg oral, Day 28): 1.4 ± 0.6 ng/mL
plasma leptin (mg/dL) ([1]; 0.1 mg/kg oral, Day 28): 29.2 ± 20.0
plasma neutral fats ([1]; 0.1 mg/kg oral, Day 28): 34.7 ± 12.5 mg/dL
plasma total cholesterol ([1]; 0.1 mg/kg oral, Day 28): 135.1 ± 15.4 mg/dL
body weight ([1]; 0.1 mg/kg oral, Day 37): 35.6 ± 3.9 g
epididymal fat mass ([1]; 0.1 mg/kg oral): 0.47 ± 0.10 g
gastrocnemius muscle weight (g/100 g body weight) ([1]; 0.1 mg/kg oral): 0.468 ± 0.033 g/100 g body weight
hepatocyte weight ([1]; 0.1 mg/kg oral): 1.37 ± 0.24 g
mesenteric fat mass ([1]; 0.1 mg/kg oral): 0.30 ± 0.08 g
body weight (in words) ([1]; obese mouse model fed with a high-fat diet): clear body weight decreasing action
